# Tested on: RAW264.7 macrophages (siLrp8)
# Assay: LPS‐induced inflammatory responses in RAW264.7 macrophages (siLrp8) with or without ApoER2 (Lrp8) plasmid
# Type: cell-based, mouse
# Excerpt: Further, we tracked the dynamic changes of inflammatory responses in mouse RAW264.7 macrophages (with Lrp8 silencing for shielding the influence of endogenous ApoER2). The RAW264.7 macrophages (siLrp8) were transfected with plasmids encoding ApoER2 (Lrp8) or vector, followed by treatment with recombinant mouse sclerostin and induction with LPS for varying durations. In detail, RAW 264.7 macrophages (siLrp8) were divided into 7 groups (n = 3 per group), including (1) Control, (2) LPS, (3) LPS + SOST, (4) Lrp8 + LPS + SOST 250 nM, (5) Lrp8 + LPS + SOST 500 nM, (6) Lrp8 + LPS + SOST 1 µM, and (7) Lrp8 + LPS. Cells in group (4–7) were transfected with plasmids encoding mouse ApoER2 (Lrp8), while cells in group (1–3) were transfected with vector. Twenty four hours later, cells in groups (3), (4), (5), and (6) were treated with recombinant mouse sclerostin at concentration of 1 µM, 250 nM, 500 nM, and 1 µM for 3 h, respectively, while cells in groups (1), (2), and (7) were treated with vehicle.^[ [35] ^] Then, cells in group (2‐7) were treated with LPS (1 µg/mL) for 18 h. All groups of cell lysates were collected for determining the mRNA expression levels of mouse TNF‐α, mouse MCP‐1, and mouse IL‐10 by RT‐PCR. Given the significant efficacy of recombinant mouse sclerostin at a concentration of 1 µM in mouse macrophages, 1 µM was selected for the subsequent studies.
# Then, the protein expression/secretion levels of pro‐inflammatory/anti‐inflammatory cytokines and chemokines, macrophage conversion, NF‐κB subcellular localization, phosphorylation, and expression were determined. In detail, RAW 264.7 cells (siLrp8) were divided into 5 groups (n = 3 per group), including (1) Control, (2) LPS, (3) LPS + SOST, (4) Lrp8 + LPS + SOST, and (5) Lrp8 + LPS. RAW 264.7 cells in groups (4) and (5) were transfected with plasmids encoding mouse ApoER2 (Lrp8), while cells in group (1‐3) were transfected with vector. Twenty four hours later, cells in groups (3) and (4) were treated with recombinant mouse sclerostin (SOST, 1 µM) for 3 h, while cells in groups (1), (2), and (5) were treated with vehicle.^[ [35] ^] Then, cells in groups (2), (3), (4), and (5) were treated with LPS (1 µg/mL) for 12 and 18 h. Cell mediums were collected for determining the protein expression/secretion levels of mouse TNF‐α, mouse MCP‐1, and mouse IL‐10 by ELISA.^[ [34] ^] The CD206^+ macrophages and CD11b^+ macrophages were determined by flow cytometry.^[ [36] ^]
# Additionally, for the determination of NF‐κB (p65) nuclear translocation, macrophages in groups (3) and (4) were treated with recombinant mouse sclerostin (SOST, 1 µM) overnight, then macrophages in groups (2), (3), (4), and (5) were treated with LPS (1 µg/mL) for 15 and 30 min. The NF‐κB (p65) nuclear translocation in macrophages was examined under microscope, after LPS induction for 15 min.^[ [37] ^] The protein level of NF‐κB (p65) in nuclear and cytoplasm was determined by western blot assay, after LPS induction for 30 min.^[ [38] ^]
# Subsequently, for the determination of NF‐κB phosphorylation, macrophages in groups (3) and (4) were treated with recombinant mouse sclerostin (SOST, 1 µM) overnight, then macrophages in groups (2), (3), (4), and (5) were treated with LPS (1 µg/mL) for 6 h. The protein level of phospho‐NF‐κB (p‐p65) was determined by western blot assay, followed by calculating the proportion of p‐p65/total p65 in cells.^[ [39] ^] At the same time, the mRNA expression level of NF‐κB (p65) was determined by RT‐PCR.^[ [40] ^] […]
# Total RNA was extracted from cells following the protocols of Trizol reagent (Invitrogen, 15 596 026). Reverse‐transcription was performed to obtain cDNA using HiScript III RT SuperMix kit (Vazyme, R323), and RT‐PCR was accomplished using a HiScript III RT SuperMix kit (Vazyme, R323) in a QuantStudio 7 PRO System (Applied Biosystems). The relative gene expression levels were calculated using the 2^−ΔΔCt method with GAPDH as the reference gene.^[ [40] ^] […]
# [1] = 1 µM, ApoER2‐overexpressing macrophages versus LPS+SOST or Lrp8+LPS, LPS 18 h, ELISA
# [2] = 1 µM, ApoER2‐overexpressing macrophages, LPS 30 min, western blot
# [3] = 1 µM, ApoER2‐overexpressing, versus LPS group, P < 0.01, LPS 18 h
# [4] = Lrp8+LPS+SOST 250 nM, 500 nM, 1 µM versus LPS+SOST or Lrp8+LPS, LPS 18 h, RT‐PCR
substance,measurement,setting,value
sclerostin: recombinant human/mouse full‐length sclerostin protein,NF‐κB nuclear translocation,"1 µM overnight, ApoER2‐overexpressing macrophages, LPS 15 min, immunofluorescence",significantly lower
same,Medium protein level of IL‐10,[1],significantly higher
same,Medium protein levels of TNF‐α and MCP‐1,[1],significantly lower
same,Proportion of anti‐inflammatory phenotype (CD206^+),"1 µM, ApoER2‐overexpressing macrophages, LPS 12 and 18 h, flow cytometry",significantly higher
same,p65 protein level in the cytoplasmic fraction,[2],elevation
same,p65 protein level in the nuclear fraction,[2],reduction
same,mRNA expression level of NF‐κB (p65),"1 µM, ApoER2‐overexpressing macrophages, LPS 6 h, RT‐PCR",significantly lower
same,Protein level of phospho‐NF‐κB (p‐p65),"1 µM, ApoER2‐overexpressing macrophages, LPS 6 h, western blot",significantly lower
same,mRNA expression of MCP‐1,[3],significantly suppressed
same,mRNA expression of TNF‐α,[3],significantly suppressed
same,mRNA expression of IL‐10,"1 µM, ApoER2‐overexpressing, versus LPS group, P < 0.05, LPS 18 h",significantly promoted
same,mRNA expression level of IL‐10,[4],dose‐dependently higher
same,mRNA expression levels of TNF‐α and MCP‐1,[4],dose‐dependently lower
same,"Cytokine/chemokine mRNA and medium protein, macrophage phenotype proportions, NF‐κB nuclear translocation/phosphorylation/mRNA: LPS+SOST versus LPS","RAW264.7 (siLrp8) without ApoER2 plasmid, sclerostin 1 µM, LPS 1 µg/mL for varying durations",no significant differences

# Reference: article PMC12884772, “Macrophagic Sclerostin Loop2‐ApoER2 Interaction Required by Sclerostin for Cardiovascular Protective Action” (Advanced Science, 2025)
